Read-outs that look alike come from different tables or passages of the source.
Molecular target: T1, EphrinB2-EphB4 (Homo sapiens, UniProt P54760)
T1 construct: soluble human EphB1-His, EphB2-His, and EphB4-His ectodomains; commercially available human EphrinB1-Fc (EB1), EphrinB2-Fc (EB2), and EphrinB3-Fc (EB3) ectodomain proteins; purchased
T1 sequence (P54760 16-539 limits assumed): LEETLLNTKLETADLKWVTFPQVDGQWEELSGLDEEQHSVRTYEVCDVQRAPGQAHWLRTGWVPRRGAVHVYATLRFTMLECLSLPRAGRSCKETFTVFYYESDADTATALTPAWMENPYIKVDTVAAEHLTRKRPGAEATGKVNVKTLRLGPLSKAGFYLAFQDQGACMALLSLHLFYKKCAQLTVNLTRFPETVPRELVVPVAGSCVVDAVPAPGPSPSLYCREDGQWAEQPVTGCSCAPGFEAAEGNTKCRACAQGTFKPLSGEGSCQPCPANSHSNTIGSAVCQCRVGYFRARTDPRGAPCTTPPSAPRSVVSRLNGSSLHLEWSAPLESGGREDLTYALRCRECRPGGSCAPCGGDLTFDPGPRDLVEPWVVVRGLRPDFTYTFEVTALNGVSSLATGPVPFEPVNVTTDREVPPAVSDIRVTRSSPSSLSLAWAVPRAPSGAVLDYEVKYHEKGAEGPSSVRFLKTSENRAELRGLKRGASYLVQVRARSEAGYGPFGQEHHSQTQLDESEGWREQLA
Test: Octet 80 sec association/500 sec dissociation, immobilized human EphrinB2-Fc binding to soluble human EphB4-His
Conditions: EphB4; for inhibition: highest dose, typically 3.2 μM; for inhibition at 3.2 µM: 25 nM EphB4, 3.2 μM compound, A20-I as max control, 0* = less than 0, no inhibition
Outline: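 EphrinB2-Fc captured on AHC biosensors, then soluble His-tagged EphB ectodomain (25 nM for % inhibition runs) associated 80 s and dissociated 500 s in PBS, 0.05% Tween-20, 1% DMSO ± compound. Compounds tested at 0.1–3.2 μM with a 10 μM max standard; IC50 from AUC of full traces or at 75 s and 135 s.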

[1] = read-out: % Inhibition: Association + Dissociation (160 sec)
[2] = read-out: % Inhibition: Association ONLY (80 sec)

SMILES	% Inhibited (AUC), Association + Dissociation (0-160 sec, 50 nM, 10 μM compound, Table 4)	% Inhibited (AUC), Association (50 nM, 10 μM compound, Table 4)	IC50 (Association (75″), read-out: Absolute IC50)	IC50 (Association (75″), read-out: Relative IC50)	IC50 (Association (AUC), read-out: Absolute IC50)	IC50 (Association (AUC), read-out: Relative IC50)	IC50 (Dissociation (135″), read-out: Absolute IC50)	IC50 (Dissociation (135″), read-out: Relative IC50)	IC50 (Full AUC, read-out: Absolute IC50)	IC50 (Full AUC, read-out: Relative IC50)	inhibition (read-out: Association (% Inhibited (AUC)))	inhibition (read-out: Association + Dissociation (% Inhibited (AUC)))	inhibition at 3.2 µM [1]	inhibition at 3.2 µM [2]
Oc1c(Br)cc(CN2CCN(c3ccc(Br)cc3)CC2)c2cccnc12 [Compound 28, 7-bromo-5-((4-(4-bromophenyl)piperazin-1-yl)methyl)quinolin-8-ol]	29.3%	16.6%	> 3200 nM	80 nM	> 3200 nM	120 nM	780 nM	200 nM	320 nM	260 nM	12.5%	36.4%		
Oc1c(Cl)cc(CN2CCOCC2)c2cccnc12 [Compound 3, 7-chloro-5-(morpholinomethyl)quinolin-8-ol]													35.5%	16.8%
Oc1ccc(CN2CCN(Cc3ccc(C(F)(F)F)cc3)CC2)c2cccnc12 [Compound 48, 5-((4-(4-(trifluoromethyl)benzyl)piperazin-1-yl)methyl)quinolin-8-ol]													0%	0%

— patent US20260374739A1, “SMALL MOLECULAR WEIGHT CHEMICAL COMPOUND TO ANTAGONIZE EPH-EPHRIN TETRAMERIZATION AND INHIBIT BIDIRECTIONAL SIGNALING” (THE BOARD OF REGENTS OF THE UNIVERSITY OF TEXAS SYSTEM, priority 2022, published 2026)
